Assay results: the kinase profiling compilation of Christmann-Franck et al. (2016)

What was measured:
Test in all cases: KINOMEscan competition binding
Details in all cases: compound 10.0 µM
[1] = target: ACVR2B (human) (UniProt Q13705)
[2] = target: AXL (human) (UniProt P30530)
[3] = target: CAMK2A (human) (UniProt Q9UQM7)
[4] = target: CDK11B (human) (UniProt P21127)
[5] = target: CSNK1G3 (human) (UniProt Q9Y6M4)
[6] = target: EPHA5 (human) (UniProt P54756)
[7] = target: FER (human) (UniProt P16591)
[8] = target: FES (human) (UniProt P07332)
[9] = target: GSK3A (human) (UniProt P49840)
[10] = target: IKBKB (human) (UniProt O14920)
[11] = target: ITK (human) (UniProt Q08881)
[12] = target: JAK1 JH2 pseudokinase (human) (UniProt P23458)
[13] = test system: KIT (human), P10721 [D816V]
[14] = target: LCK (human) (UniProt P06239)
[15] = target: LIMK2 (human) (UniProt P53671)
[16] = target: MAP2K3 (human) (UniProt P46734)
[17] = target: MAP3K12 (human) (UniProt Q12852)
MAP3K12 (human), sequence (Q12852 whole entry, looked up): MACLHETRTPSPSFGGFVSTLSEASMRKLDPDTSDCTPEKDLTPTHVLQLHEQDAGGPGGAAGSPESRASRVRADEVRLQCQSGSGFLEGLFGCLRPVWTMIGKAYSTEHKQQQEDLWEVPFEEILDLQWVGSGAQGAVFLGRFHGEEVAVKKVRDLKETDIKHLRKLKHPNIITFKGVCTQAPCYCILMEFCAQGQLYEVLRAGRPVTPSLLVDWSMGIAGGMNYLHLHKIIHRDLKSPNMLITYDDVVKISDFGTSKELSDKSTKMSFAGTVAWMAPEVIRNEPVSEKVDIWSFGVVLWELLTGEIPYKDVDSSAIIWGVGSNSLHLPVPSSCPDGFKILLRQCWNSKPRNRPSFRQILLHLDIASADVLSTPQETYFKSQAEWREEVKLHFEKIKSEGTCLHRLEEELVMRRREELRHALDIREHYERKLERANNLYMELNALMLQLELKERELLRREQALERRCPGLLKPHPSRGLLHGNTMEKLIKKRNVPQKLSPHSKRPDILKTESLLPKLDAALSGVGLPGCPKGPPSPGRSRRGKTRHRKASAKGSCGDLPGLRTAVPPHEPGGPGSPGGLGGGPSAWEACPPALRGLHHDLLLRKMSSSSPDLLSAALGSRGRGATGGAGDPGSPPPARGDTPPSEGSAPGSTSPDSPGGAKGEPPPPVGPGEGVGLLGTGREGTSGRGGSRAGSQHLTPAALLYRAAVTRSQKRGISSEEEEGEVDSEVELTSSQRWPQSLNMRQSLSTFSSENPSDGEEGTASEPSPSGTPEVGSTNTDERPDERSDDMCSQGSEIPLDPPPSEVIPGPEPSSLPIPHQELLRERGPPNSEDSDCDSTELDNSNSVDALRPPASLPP

[18] = target: MAP3K3 (human) (UniProt Q99759)
[19] = target: MAPK15 (human) (UniProt Q8TD08)
MAPK15 (human), sequence (Q8TD08 whole entry, looked up): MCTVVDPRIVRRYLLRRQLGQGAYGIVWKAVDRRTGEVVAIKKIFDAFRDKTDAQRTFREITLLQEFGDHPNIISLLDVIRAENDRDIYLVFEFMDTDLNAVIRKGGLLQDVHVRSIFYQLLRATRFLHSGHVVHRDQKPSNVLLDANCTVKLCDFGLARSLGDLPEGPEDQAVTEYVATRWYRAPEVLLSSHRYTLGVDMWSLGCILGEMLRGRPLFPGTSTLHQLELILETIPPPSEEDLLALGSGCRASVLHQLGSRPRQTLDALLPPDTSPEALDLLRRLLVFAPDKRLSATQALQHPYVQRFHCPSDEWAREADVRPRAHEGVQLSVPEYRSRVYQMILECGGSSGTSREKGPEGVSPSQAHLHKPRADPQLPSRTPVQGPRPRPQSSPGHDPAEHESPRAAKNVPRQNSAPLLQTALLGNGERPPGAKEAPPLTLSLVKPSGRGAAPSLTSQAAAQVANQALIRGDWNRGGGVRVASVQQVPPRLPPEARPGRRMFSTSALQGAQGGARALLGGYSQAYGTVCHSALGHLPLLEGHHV

[20] = target: MAPK6 (human) (UniProt Q16659)
MAPK6 (human), sequence (Q16659 whole entry, looked up): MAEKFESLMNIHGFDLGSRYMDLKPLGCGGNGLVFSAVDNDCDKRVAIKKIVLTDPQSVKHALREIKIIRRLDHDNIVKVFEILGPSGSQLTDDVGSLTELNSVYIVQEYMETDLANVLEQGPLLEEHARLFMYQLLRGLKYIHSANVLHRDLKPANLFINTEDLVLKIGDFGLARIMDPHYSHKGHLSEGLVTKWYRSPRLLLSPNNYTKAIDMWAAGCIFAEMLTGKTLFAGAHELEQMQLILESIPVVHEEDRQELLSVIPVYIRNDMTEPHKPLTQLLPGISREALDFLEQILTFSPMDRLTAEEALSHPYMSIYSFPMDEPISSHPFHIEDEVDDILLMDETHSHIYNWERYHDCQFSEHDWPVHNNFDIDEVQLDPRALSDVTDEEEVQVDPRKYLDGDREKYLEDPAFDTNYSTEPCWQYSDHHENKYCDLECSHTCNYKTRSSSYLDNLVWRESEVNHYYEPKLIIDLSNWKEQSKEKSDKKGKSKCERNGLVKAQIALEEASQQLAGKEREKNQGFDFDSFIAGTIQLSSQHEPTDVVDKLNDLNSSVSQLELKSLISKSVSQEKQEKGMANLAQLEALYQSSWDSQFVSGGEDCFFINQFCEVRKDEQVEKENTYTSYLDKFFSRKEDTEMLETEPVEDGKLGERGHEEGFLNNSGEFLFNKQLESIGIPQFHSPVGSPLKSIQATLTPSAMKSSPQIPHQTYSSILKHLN

[21] = target: MARK4 (human) (UniProt Q96L34)
MARK4 (human), sequence (Q96L34 whole entry, looked up): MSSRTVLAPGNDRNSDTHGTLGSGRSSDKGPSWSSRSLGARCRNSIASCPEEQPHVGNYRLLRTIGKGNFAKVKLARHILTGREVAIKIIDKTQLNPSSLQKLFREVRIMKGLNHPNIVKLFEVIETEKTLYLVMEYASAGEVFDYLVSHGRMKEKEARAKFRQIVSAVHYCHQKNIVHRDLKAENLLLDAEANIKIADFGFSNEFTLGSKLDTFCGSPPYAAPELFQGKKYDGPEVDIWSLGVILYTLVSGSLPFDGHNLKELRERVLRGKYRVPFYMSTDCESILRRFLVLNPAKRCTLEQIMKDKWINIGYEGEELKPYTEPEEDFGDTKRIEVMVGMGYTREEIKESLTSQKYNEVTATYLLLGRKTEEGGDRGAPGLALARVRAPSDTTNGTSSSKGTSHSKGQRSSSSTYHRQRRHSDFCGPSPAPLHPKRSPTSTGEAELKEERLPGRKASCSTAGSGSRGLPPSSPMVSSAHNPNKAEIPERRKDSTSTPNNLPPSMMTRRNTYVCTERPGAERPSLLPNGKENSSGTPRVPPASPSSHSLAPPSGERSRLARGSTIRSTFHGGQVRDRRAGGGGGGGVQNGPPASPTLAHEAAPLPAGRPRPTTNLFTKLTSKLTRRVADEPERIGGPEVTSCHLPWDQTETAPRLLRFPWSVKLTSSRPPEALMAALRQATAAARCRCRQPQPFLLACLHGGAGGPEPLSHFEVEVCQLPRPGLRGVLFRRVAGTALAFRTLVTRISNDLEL

[22] = target: MST4 (human) (UniProt Q9P289)
[23] = target: MYLK4 (human) (UniProt Q86YV6)
MYLK4 (human), sequence (Q86YV6 whole entry, looked up): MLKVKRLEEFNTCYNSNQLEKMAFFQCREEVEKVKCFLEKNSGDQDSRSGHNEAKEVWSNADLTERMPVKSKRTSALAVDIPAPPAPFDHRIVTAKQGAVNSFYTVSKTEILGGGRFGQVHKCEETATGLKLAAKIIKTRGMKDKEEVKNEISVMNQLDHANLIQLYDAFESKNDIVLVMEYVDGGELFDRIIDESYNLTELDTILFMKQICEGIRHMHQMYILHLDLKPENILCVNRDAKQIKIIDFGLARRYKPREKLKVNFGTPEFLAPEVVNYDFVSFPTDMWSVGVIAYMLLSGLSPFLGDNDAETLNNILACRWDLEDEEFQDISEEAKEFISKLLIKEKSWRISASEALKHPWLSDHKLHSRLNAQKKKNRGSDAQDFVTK

[24] = target: NEK5 (human) (UniProt Q6P3R8)
[25] = target: NUAK2 (human) (UniProt Q9H093)
[26] = target: PAK2 (human) (UniProt Q13177)
[27] = target: PDGFRB (human) (UniProt P09619)
[28] = target: PIK3CD (human) (UniProt O00329)
[29] = target: PIP5K1A (human) (UniProt Q99755)
[30] = target: PRKD1 (human) (UniProt Q15139)
[31] = target: PRKG2 (human) (UniProt Q13237)
[32] = target: ROCK2 (human) (UniProt O75116)
[33] = target: ROS1 (human) (UniProt P08922)
[34] = target: RPS6KA5 KD2 (human) (UniProt O75582)
[35] = target: SIK1 (human) (UniProt P57059)
SIK1 (human), sequence (P57059 whole entry, looked up): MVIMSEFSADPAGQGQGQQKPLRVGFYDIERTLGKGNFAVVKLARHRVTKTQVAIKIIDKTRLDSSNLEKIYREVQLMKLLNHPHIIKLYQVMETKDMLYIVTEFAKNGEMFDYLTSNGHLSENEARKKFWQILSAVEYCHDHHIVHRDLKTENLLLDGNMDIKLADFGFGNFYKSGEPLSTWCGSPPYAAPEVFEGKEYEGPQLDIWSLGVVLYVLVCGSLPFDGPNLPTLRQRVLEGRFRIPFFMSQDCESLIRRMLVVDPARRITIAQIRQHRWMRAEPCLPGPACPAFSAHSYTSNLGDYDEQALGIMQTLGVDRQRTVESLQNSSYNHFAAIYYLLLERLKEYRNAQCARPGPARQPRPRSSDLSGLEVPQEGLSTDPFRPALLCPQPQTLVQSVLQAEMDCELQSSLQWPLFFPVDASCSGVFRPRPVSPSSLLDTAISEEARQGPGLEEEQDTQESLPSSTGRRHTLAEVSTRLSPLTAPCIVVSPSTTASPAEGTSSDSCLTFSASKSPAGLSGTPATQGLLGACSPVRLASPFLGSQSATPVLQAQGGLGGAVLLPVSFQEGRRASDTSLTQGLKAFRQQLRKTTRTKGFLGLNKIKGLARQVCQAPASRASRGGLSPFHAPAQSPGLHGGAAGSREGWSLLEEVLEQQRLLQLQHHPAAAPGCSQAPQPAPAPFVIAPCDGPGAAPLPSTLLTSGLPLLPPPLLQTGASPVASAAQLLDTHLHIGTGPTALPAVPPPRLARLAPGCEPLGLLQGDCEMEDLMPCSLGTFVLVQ

[36] = target: TEC (human) (UniProt P42680)
[37] = target: TEK (human) (UniProt Q02763)
[38] = target: TESK1 (human) (UniProt Q15569)
[39] = target: TGFBR2 (human) (UniProt P37173)
[40] = target: TXK (human) (UniProt P42681)

CDK11B (human), sequence (P21127 whole entry, looked up): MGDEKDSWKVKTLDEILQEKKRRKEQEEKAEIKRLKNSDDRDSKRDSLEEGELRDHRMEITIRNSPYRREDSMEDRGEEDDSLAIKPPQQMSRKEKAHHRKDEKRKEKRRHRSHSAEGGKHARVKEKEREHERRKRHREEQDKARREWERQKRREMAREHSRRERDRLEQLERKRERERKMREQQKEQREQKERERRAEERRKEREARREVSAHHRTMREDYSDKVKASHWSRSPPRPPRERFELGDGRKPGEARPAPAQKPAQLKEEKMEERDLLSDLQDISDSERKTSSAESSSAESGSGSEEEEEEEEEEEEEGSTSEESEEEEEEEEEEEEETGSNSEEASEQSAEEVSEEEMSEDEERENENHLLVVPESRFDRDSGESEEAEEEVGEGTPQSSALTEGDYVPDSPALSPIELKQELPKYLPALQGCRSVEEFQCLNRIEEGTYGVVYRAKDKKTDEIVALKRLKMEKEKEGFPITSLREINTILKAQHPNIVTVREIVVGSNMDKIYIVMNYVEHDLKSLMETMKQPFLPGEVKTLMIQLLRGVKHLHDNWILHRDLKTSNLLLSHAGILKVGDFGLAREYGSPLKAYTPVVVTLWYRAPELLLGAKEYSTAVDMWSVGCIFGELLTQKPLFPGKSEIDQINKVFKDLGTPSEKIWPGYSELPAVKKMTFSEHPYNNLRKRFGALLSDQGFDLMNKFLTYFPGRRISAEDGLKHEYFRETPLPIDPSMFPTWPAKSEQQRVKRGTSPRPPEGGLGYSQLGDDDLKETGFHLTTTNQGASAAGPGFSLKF

CN(C)C/C=C/C(=O)Nc1cccc(Nc2ncc3c(n2)N(C)c2ccccc2C(=O)N3C)c1
kinase still bound, per cent of control [1]: 9.4% | kinase still bound, per cent of control [2]: 7% | kinase still bound, per cent of control [3]: 32% | kinase still bound, per cent of control [4]: 100% | kinase still bound, per cent of control [5]: 39% | kinase still bound, per cent of control [6]: 99% | kinase still bound, per cent of control [7]: 100% | kinase still bound, per cent of control [8]: 67% | kinase still bound, per cent of control [9]: 69% | kinase still bound, per cent of control [10]: 100% | kinase still bound, per cent of control [11]: 58% | kinase still bound, per cent of control [12]: 0.25% | kinase still bound, per cent of control [13]: 7.4% | kinase still bound, per cent of control [14]: 1.2% | kinase still bound, per cent of control [15]: 94% | kinase still bound, per cent of control [16]: 100% | kinase still bound, per cent of control [17]: 38% | kinase still bound, per cent of control [18]: 0.1% | kinase still bound, per cent of control [19]: 100% | kinase still bound, per cent of control [20]: 46% | kinase still bound, per cent of control [21]: 1.5% | kinase still bound, per cent of control [22]: 31% | kinase still bound, per cent of control [23]: 86% | kinase still bound, per cent of control [24]: 58% | kinase still bound, per cent of control [25]: 2.6% | kinase still bound, per cent of control [26]: 67% | kinase still bound, per cent of control [27]: 38% | kinase still bound, per cent of control [28]: 2.2% | kinase still bound, per cent of control [29]: 9.9% | kinase still bound, per cent of control [30]: 15% | kinase still bound, per cent of control [31]: 81% | kinase still bound, per cent of control [32]: 58% | kinase still bound, per cent of control [33]: 27% | kinase still bound, per cent of control [34]: 80% | kinase still bound, per cent of control [35]: 2.7% | kinase still bound, per cent of control [36]: 97% | kinase still bound, per cent of control [37]: 35% | kinase still bound, per cent of control [38]: 100% | kinase still bound, per cent of control [39]: 55% | kinase still bound, per cent of control [40]: 11%

Cc1ccc2nc(NCCN)c3ncc(C)n3c2c1
kinase still bound, per cent of control [1]: 100% | kinase still bound, per cent of control [2]: 100% | kinase still bound, per cent of control [3]: 78% | kinase still bound, per cent of control [4]: 0.95% | kinase still bound, per cent of control [5]: 100% | kinase still bound, per cent of control [6]: 100% | kinase still bound, per cent of control [7]: 98% | kinase still bound, per cent of control [8]: 100% | kinase still bound, per cent of control [9]: 100% | kinase still bound, per cent of control [10]: 0.55% | kinase still bound, per cent of control [11]: 100% | kinase still bound, per cent of control [12]: 47% | kinase still bound, per cent of control [13]: 88% | kinase still bound, per cent of control [14]: 98% | kinase still bound, per cent of control [15]: 100% | kinase still bound, per cent of control [16]: 95% | kinase still bound, per cent of control [17]: 84% | kinase still bound, per cent of control [18]: 100% | kinase still bound, per cent of control [19]: 19% | kinase still bound, per cent of control [20]: 27% | kinase still bound, per cent of control [21]: 100% | kinase still bound, per cent of control [22]: 95% | kinase still bound, per cent of control [23]: 8.8% | kinase still bound, per cent of control [24]: 100% | kinase still bound, per cent of control [25]: 100% | kinase still bound, per cent of control [26]: 94% | kinase still bound, per cent of control [27]: 57% | kinase still bound, per cent of control [28]: 99% | kinase still bound, per cent of control [29]: 92% | kinase still bound, per cent of control [30]: 47% | kinase still bound, per cent of control [31]: 100% | kinase still bound, per cent of control [32]: 100% | kinase still bound, per cent of control [33]: 77% | kinase still bound, per cent of control [34]: 85% | kinase still bound, per cent of control [35]: 100% | kinase still bound, per cent of control [36]: 100% | kinase still bound, per cent of control [37]: 100% | kinase still bound, per cent of control [38]: 79% | kinase still bound, per cent of control [39]: 93% | kinase still bound, per cent of control [40]: 90%

O=C(NC1CC1)c1cccc(-c2ccc3c(NC(=O)C4CC4)n[nH]c3c2)c1
kinase still bound, per cent of control [1]: 84% | kinase still bound, per cent of control [2]: 54% | kinase still bound, per cent of control [3]: 88% | kinase still bound, per cent of control [4]: 97% | kinase still bound, per cent of control [5]: 98% | kinase still bound, per cent of control [6]: 95% | kinase still bound, per cent of control [7]: 78% | kinase still bound, per cent of control [8]: 100% | kinase still bound, per cent of control [9]: 84% | kinase still bound, per cent of control [10]: 78% | kinase still bound, per cent of control [11]: 100% | kinase still bound, per cent of control [12]: 84% | kinase still bound, per cent of control [13]: 97% | kinase still bound, per cent of control [14]: 100% | kinase still bound, per cent of control [15]: 98% | kinase still bound, per cent of control [16]: 33% | kinase still bound, per cent of control [17]: 30% | kinase still bound, per cent of control [18]: 85% | kinase still bound, per cent of control [19]: 2.9% | kinase still bound, per cent of control [20]: 78% | kinase still bound, per cent of control [21]: 96% | kinase still bound, per cent of control [22]: 94% | kinase still bound, per cent of control [23]: 42% | kinase still bound, per cent of control [24]: 60% | kinase still bound, per cent of control [25]: 24% | kinase still bound, per cent of control [26]: 69% | kinase still bound, per cent of control [27]: 24% | kinase still bound, per cent of control [28]: 85% | kinase still bound, per cent of control [29]: 28% | kinase still bound, per cent of control [30]: 100% | kinase still bound, per cent of control [31]: 72% | kinase still bound, per cent of control [32]: 53% | kinase still bound, per cent of control [33]: 100% | kinase still bound, per cent of control [34]: 100% | kinase still bound, per cent of control [35]: 84% | kinase still bound, per cent of control [36]: 95% | kinase still bound, per cent of control [37]: 54% | kinase still bound, per cent of control [38]: 100% | kinase still bound, per cent of control [39]: 100% | kinase still bound, per cent of control [40]: 77%
